Test results reported in US8551937B2, “Peptide having an extending action for half-life of object peptide in plasma” (priority 2008, dated 2013).
Where a SMILES comes first, the peptide text is derived from it.

Test: Motilin immunoreactivity concentration in plasma, half-life after intravenous administration (Example 6)
Format: in vivo, rat
Conditions: SD, rat, plasma, 10 nmol/kg, male rats, N = 3, read-out: T½ Mean Value
Method: The experiment was carried out using rats into which polyethylene tube (PE-50 manufactured by Clay Adams) was previously inserted into thigh artery under an anesthetized condition with Nembutal. As to a test system, male SD strain rats (Nippon Charles River) of 7 weeks age were used where one group comprised 3 rats. Human type motilin or a derivative thereof in a dose of 10 nmol/kg was administered into tail vein of the rat and the blood before the administration and until 60 minutes after the administration was collected by a polyethylene tube inserted into the thigh artery. To the collected blood were added EDTA (manufactured by Dojin Laboratories) and aprotinin (manufactured by Bayer) as a stabilizer and an anti-coagulant, respectively and the plasma was separated therefrom by centrifugal separation.
`CC[C@H](C)[C@H](NC(=O)[C@@H]1CCCN1C(=O)[C@@H](NC(=O)[C@@H](N)Cc1ccccc1)C(C)C)C(=O)N[C@@H](Cc1ccccc1)C(=O)N[C@H](C(=O)N[C@@H](Cc1ccc(O)cc1)C(=O)NCC(=O)N[C@@H](CCC(=O)O)C(=O)N[C@@H](CC(C)C)C(=O)N[C@@H](CCC(N)=O)C(=O)N[C@@H](CCCNC(=N)N)C(=O)N[C@H](C(=O)N[C@@H](CCC(N)=O)C(=O)N[C@@H](CCC(N)=O)C(=O)N[C@@H](CCCNC(=N)N)C(=O)N[C@@H](CCCCN)C(=O)N[C@@H](CCC(=O)O)C(=O)N[C@@H](CO)C(=O)N[C@@H](CCCCN)C(=O)N[C@@H](CCCCN)C(=O)O)C(C)C)[C@@H](C)O` [Chimeric motilin (K)] (H-FVPIFTYGELQRVQQRKESKK-OH; N-terminus and C-terminus assumed) gave a half-life of 6.14 min.
Compound `CC[C@H](C)[C@H](NC(=O)[C@@H]1CCCN1C(=O)[C@@H](NC(=O)[C@@H](N)Cc1ccccc1)C(C)C)C(=O)N[C@@H](Cc1ccccc1)C(=O)N[C@H](C(=O)N[C@@H](Cc1ccc(O)cc1)C(=O)NCC(=O)N[C@@H](CCC(=O)O)C(=O)N[C@@H](CC(C)C)C(=O)N[C@@H](CCC(N)=O)C(=O)N[C@@H](CCCNC(=N)N)C(=O)N[C@@H](CCC(=O)O)C(=O)N[C@@H](Cc1c[nH]cn1)C(=O)N[C@@H](CCC(N)=O)C(=O)N[C@@H](CCCNC(=N)N)C(=O)N[C@H](C(=O)N[C@@H](CCC(N)=O)C(=O)N[C@@H](CCC(N)=O)C(=O)N[C@@H](CCCNC(=N)N)C(=O)N[C@@H](CCCCN)C(=O)N[C@@H](CCC(=O)O)C(=O)N[C@@H](CO)C(=O)N[C@@H](CCCCN)C(=O)N[C@@H](CCCCN)C(=O)N1CCC[C@H]1C(=O)N1CCC[C@H]1C(=O)N[C@@H](C)C(=O)N[C@@H](CCCCN)C(=O)N[C@@H](CC(C)C)C(=O)N[C@@H](CCC(N)=O)C(=O)N1CCC[C@H]1C(=O)N[C@@H](CCCNC(=N)N)C(=O)O)C(C)C)[C@@H](C)O` [Chimeric motilin (B)] (H-FVPIFTYGELQREHQRVQQRKESKKPPAKLQPR-OH; N-terminus and C-terminus assumed) has a half-life of 11.1 min.
With `CC[C@H](C)[C@H](NC(=O)[C@@H]1CCCN1C(=O)[C@@H](NC(=O)[C@@H](N)Cc1ccccc1)C(C)C)C(=O)N[C@@H](Cc1ccccc1)C(=O)N[C@H](C(=O)N[C@@H](Cc1ccc(O)cc1)C(=O)NCC(=O)N[C@@H](CCC(=O)O)C(=O)N[C@@H](CC(C)C)C(=O)N[C@@H](CCC(N)=O)C(=O)N[C@@H](CCCNC(=N)N)C(=O)N[C@H](C(=O)N[C@@H](CCC(N)=O)C(=O)N[C@@H](CCC(N)=O)C(=O)N[C@@H](CCCNC(=N)N)C(=O)N[C@@H](CCCCN)C(=O)N[C@@H](CCC(=O)O)C(=O)N[C@@H](CO)C(=O)N[C@@H](CCCCN)C(=O)N[C@@H](CCCCN)C(=O)N1CCC[C@H]1C(=O)N1CCC[C@H]1C(=O)N[C@@H](C)C(=O)N[C@@H](CCCCN)C(=O)N[C@@H](CC(C)C)C(=O)N[C@@H](CCC(N)=O)C(=O)O)C(C)C)[C@@H](C)O` [Chimeric motilin (H)] (H-FVPIFTYGELQRVQQRKESKKPPAKLQ-OH; N-terminus and C-terminus assumed) the half-life was 10.4 min.
In the case of `CC[C@H](C)[C@H](NC(=O)[C@@H]1CCCN1C(=O)[C@@H](NC(=O)[C@@H](N)Cc1ccccc1)C(C)C)C(=O)N[C@@H](Cc1ccccc1)C(=O)N[C@H](C(=O)N[C@@H](Cc1ccc(O)cc1)C(=O)NCC(=O)N[C@@H](CCC(=O)O)C(=O)N[C@@H](CC(C)C)C(=O)N[C@@H](CCC(N)=O)C(=O)N[C@@H](CCCNC(=N)N)C(=O)N[C@@H](CO)C(=O)N1CCC[C@H]1C(=O)N[C@@H](CCC(=O)O)C(=O)N[C@@H](Cc1c[nH]cn1)C(=O)N[C@@H](CCC(N)=O)C(=O)N[C@@H](CCCNC(=N)N)C(=O)N[C@H](C(=O)N[C@@H](CCC(N)=O)C(=O)N[C@@H](CCC(N)=O)C(=O)N[C@@H](CCCNC(=N)N)C(=O)N[C@@H](CCCCN)C(=O)N[C@@H](CCC(=O)O)C(=O)N[C@@H](CO)C(=O)N[C@@H](CCCCN)C(=O)N[C@@H](CCCCN)C(=O)N1CCC[C@H]1C(=O)N1CCC[C@H]1C(=O)N[C@@H](C)C(=O)N[C@@H](CCCCN)C(=O)N[C@@H](CC(C)C)C(=O)N[C@@H](CCC(N)=O)C(=O)N1CCC[C@H]1C(=O)N[C@@H](CCCNC(=N)N)C(=O)O)C(C)C)[C@@H](C)O` [Chimeric motilin (A)] (H-FVPIFTYGELQRSPEHQRVQQRKESKKPPAKLQPR-OH; N-terminus and C-terminus assumed), the half-life is reported as 11.7 min.
Work on `CC[C@H](C)[C@H](NC(=O)[C@@H]1CCCN1C(=O)[C@@H](NC(=O)[C@@H](N)Cc1ccccc1)C(C)C)C(=O)N[C@@H](Cc1ccccc1)C(=O)N[C@H](C(=O)N[C@@H](Cc1ccc(O)cc1)C(=O)NCC(=O)N[C@@H](CCC(=O)O)C(=O)N[C@@H](CC(C)C)C(=O)N[C@@H](CCC(N)=O)C(=O)N[C@@H](CCCNC(=N)N)C(=O)N[C@H](C(=O)N[C@@H](CCC(N)=O)C(=O)N[C@@H](CCC(N)=O)C(=O)N[C@@H](CCCNC(=N)N)C(=O)N[C@@H](CCCCN)C(=O)N[C@@H](CCC(=O)O)C(=O)N[C@@H](CO)C(=O)O)C(C)C)[C@@H](C)O` [Chimeric motilin (L), FVPIFTYGELQRVQQRKES] (H-FVPIFTYGELQRVQQRKES-OH; N-terminus and C-terminus assumed) yielded a half-life of 4.89 min.
Compound `CC[C@H](C)[C@H](NC(=O)[C@@H]1CCCN1C(=O)[C@@H](NC(=O)[C@@H](N)Cc1ccccc1)C(C)C)C(=O)N[C@@H](Cc1ccccc1)C(=O)N[C@H](C(=O)N[C@@H](Cc1ccc(O)cc1)C(=O)NCC(=O)N[C@@H](CCC(=O)O)C(=O)N[C@@H](CC(C)C)C(=O)N[C@@H](CCC(N)=O)C(=O)N[C@@H](CCCNC(=N)N)C(=O)N[C@@H](CCCCN)C(=O)N[C@@H](CCC(=O)O)C(=O)N[C@@H](CO)C(=O)N[C@@H](CCCCN)C(=O)N[C@@H](CCCCN)C(=O)N1CCC[C@H]1C(=O)N1CCC[C@H]1C(=O)N[C@@H](C)C(=O)N[C@@H](CCCCN)C(=O)N[C@@H](CC(C)C)C(=O)N[C@@H](CCC(N)=O)C(=O)N1CCC[C@H]1C(=O)N[C@@H](CCCNC(=N)N)C(=O)O)[C@@H](C)O` [Chimeric motilin (F)] (H-FVPIFTYGELQRKESKKPPAKLQPR-OH; N-terminus and C-terminus assumed) has a half-life of 9.37 min.
Compound `CC[C@H](C)[C@H](NC(=O)[C@@H]1CCCN1C(=O)[C@@H](NC(=O)[C@@H](N)Cc1ccccc1)C(C)C)C(=O)N[C@@H](Cc1ccccc1)C(=O)N[C@H](C(=O)N[C@@H](Cc1ccc(O)cc1)C(=O)NCC(=O)N[C@@H](CCC(=O)O)C(=O)N[C@@H](CC(C)C)C(=O)N[C@@H](CCC(N)=O)C(=O)N[C@@H](CCCNC(=N)N)C(=O)N[C@H](C(=O)N[C@@H](CCC(N)=O)C(=O)N[C@@H](CCC(N)=O)C(=O)N[C@@H](CCCNC(=N)N)C(=O)N[C@@H](CCCCN)C(=O)N[C@@H](CCC(=O)O)C(=O)N[C@@H](CO)C(=O)N[C@@H](CCCCN)C(=O)N[C@@H](CCCCN)C(=O)N1CCC[C@H]1C(=O)N1CCC[C@H]1C(=O)N[C@@H](C)C(=O)N[C@@H](CCCCN)C(=O)O)C(C)C)[C@@H](C)O` [Chimeric motilin (I)] (H-FVPIFTYGELQRVQQRKESKKPPAK-OH; N-terminus and C-terminus assumed) has a half-life of 5.76 min.
With `CC[C@H](C)[C@H](NC(=O)[C@@H]1CCCN1C(=O)[C@@H](NC(=O)[C@@H](N)Cc1ccccc1)C(C)C)C(=O)N[C@@H](Cc1ccccc1)C(=O)N[C@H](C(=O)N[C@@H](Cc1ccc(O)cc1)C(=O)NCC(=O)N[C@@H](CCC(=O)O)C(=O)N[C@@H](CC(C)C)C(=O)N[C@@H](CCC(N)=O)C(=O)N[C@@H](CCCNC(=N)N)C(=O)N[C@@H](CCC(N)=O)C(=O)N[C@@H](CCCNC(=N)N)C(=O)N[C@H](C(=O)N[C@@H](CCC(N)=O)C(=O)N[C@@H](CCC(N)=O)C(=O)N[C@@H](CCCNC(=N)N)C(=O)N[C@@H](CCCCN)C(=O)N[C@@H](CCC(=O)O)C(=O)N[C@@H](CO)C(=O)N[C@@H](CCCCN)C(=O)N[C@@H](CCCCN)C(=O)N1CCC[C@H]1C(=O)N1CCC[C@H]1C(=O)N[C@@H](C)C(=O)N[C@@H](CCCCN)C(=O)N[C@@H](CC(C)C)C(=O)N[C@@H](CCC(N)=O)C(=O)N1CCC[C@H]1C(=O)N[C@@H](CCCNC(=N)N)C(=O)O)C(C)C)[C@@H](C)O` [Chimeric motilin (C)] (H-FVPIFTYGELQRQRVQQRKESKKPPAKLQPR-OH; N-terminus and C-terminus assumed) the half-life was 8.9 min.
`CC[C@H](C)[C@H](NC(=O)[C@@H]1CCCN1C(=O)[C@@H](NC(=O)[C@@H](N)Cc1ccccc1)C(C)C)C(=O)N[C@@H](Cc1ccccc1)C(=O)N[C@H](C(=O)N[C@@H](Cc1ccc(O)cc1)C(=O)NCC(=O)N[C@@H](CCC(=O)O)C(=O)N[C@@H](CC(C)C)C(=O)N[C@@H](CCC(N)=O)C(=O)N[C@@H](CCCNC(=N)N)C(=O)N[C@H](C(=O)N[C@@H](CCC(N)=O)C(=O)N[C@@H](CCC(N)=O)C(=O)N[C@@H](CCCNC(=N)N)C(=O)N[C@@H](CCCCN)C(=O)O)C(C)C)[C@@H](C)O` [Chimeric motilin (M), FVPIFTYGELQRVQQRK] (H-FVPIFTYGELQRVQQRK-OH; N-terminus and C-terminus assumed) showed a half-life of 2.39 min.
In the case of `CC[C@H](C)[C@H](NC(=O)[C@@H]1CCCN1C(=O)[C@@H](NC(=O)[C@@H](N)Cc1ccccc1)C(C)C)C(=O)N[C@@H](Cc1ccccc1)C(=O)N[C@H](C(=O)N[C@@H](Cc1ccc(O)cc1)C(=O)NCC(=O)N[C@@H](CCC(=O)O)C(=O)N[C@@H](CC(C)C)C(=O)N[C@@H](CCC(N)=O)C(=O)N[C@@H](CCCNC(=N)N)C(=O)N[C@H](C(=O)N[C@@H](CCC(N)=O)C(=O)N[C@@H](CCC(N)=O)C(=O)N[C@@H](CCCNC(=N)N)C(=O)N[C@@H](CCCCN)C(=O)N[C@@H](CCC(=O)O)C(=O)N[C@@H](CO)C(=O)N[C@@H](CCCCN)C(=O)N[C@@H](CCCCN)C(=O)N1CCC[C@H]1C(=O)N1CCC[C@H]1C(=O)O)C(C)C)[C@@H](C)O` [Chimeric motilin (J)] (H-FVPIFTYGELQRVQQRKESKKPP-OH; N-terminus and C-terminus assumed), the half-life is reported as 6.34 min.

Same assay, conditions: rats
With `CC[C@H](C)[C@H](NC(=O)[C@@H]1CCCN1C(=O)[C@@H](NC(=O)[C@@H](N)Cc1ccccc1)C(C)C)C(=O)N[C@@H](Cc1ccccc1)C(=O)N[C@H](C(=O)N[C@@H](Cc1ccc(O)cc1)C(=O)NCC(=O)N[C@@H](CCC(=O)O)C(=O)N[C@@H](CC(C)C)C(=O)N[C@@H](CCC(N)=O)C(=O)N[C@@H](CCCNC(=N)N)C(=O)N[C@H](C(=O)N[C@@H](CCC(N)=O)C(=O)N[C@@H](CCC(N)=O)C(=O)N[C@@H](CCCNC(=N)N)C(=O)N[C@@H](CCCCN)C(=O)N[C@@H](CCC(=O)O)C(=O)N[C@@H](CO)C(=O)O)C(C)C)[C@@H](C)O` [Chimeric motilin (L), FVPIFTYGELQRVQQRKES] (H-FVPIFTYGELQRVQQRKES-OH; N-terminus and C-terminus assumed) the “disappearance half-time extending action in vivo compared with native motilin” value was “unable to be confirmed”.
For `CC[C@H](C)[C@H](NC(=O)[C@@H]1CCCN1C(=O)[C@@H](NC(=O)[C@@H](N)Cc1ccccc1)C(C)C)C(=O)N[C@@H](Cc1ccccc1)C(=O)N[C@H](C(=O)N[C@@H](Cc1ccc(O)cc1)C(=O)NCC(=O)N[C@@H](CCC(=O)O)C(=O)N[C@@H](CC(C)C)C(=O)N[C@@H](CCC(N)=O)C(=O)N[C@@H](CCCNC(=N)N)C(=O)N[C@H](C(=O)N[C@@H](CCC(N)=O)C(=O)N[C@@H](CCC(N)=O)C(=O)N[C@@H](CCCNC(=N)N)C(=O)N[C@@H](CCCCN)C(=O)O)C(C)C)[C@@H](C)O` [Chimeric motilin (M), FVPIFTYGELQRVQQRK] (H-FVPIFTYGELQRVQQRK-OH; N-terminus and C-terminus assumed), the “disappearance half-time extending action in vivo compared with native motilin” value was “unable to be confirmed”.
